US7888061B2, “Method of stabilising or reactivating a creatinine sensor with a divalent manganese ion” (Radiometer Medical ApS, priority 2005, dated 2011)
Where two headings read alike, the source gives them in different places.

Assays:
[1] = biological target: T1, Creatinine Amidohydrolase (Creatininase) (Pseudomonas putida, UniProt P83772); conditions: cited from earlier work; for reactivation of the inactive apoenzyme: addition of 0.5 mM, zinc ions removed from creatininase
T1 sequence (P83772 1-260): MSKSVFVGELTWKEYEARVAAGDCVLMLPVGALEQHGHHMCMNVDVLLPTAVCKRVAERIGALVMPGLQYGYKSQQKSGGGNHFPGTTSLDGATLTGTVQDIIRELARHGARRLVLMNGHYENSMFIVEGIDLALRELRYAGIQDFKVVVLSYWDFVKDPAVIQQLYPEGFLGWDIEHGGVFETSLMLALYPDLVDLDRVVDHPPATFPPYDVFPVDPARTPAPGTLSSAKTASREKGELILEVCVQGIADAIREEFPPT

[2] = biological target: heat-treated creatininase (Pseudomonas putida, UniProt P83772); conditions: enzyme assays
[3] = biological target: urease (Canavalia ensiformis, UniProt P07374)
Sequence of urease (P07374 whole entry, looked up): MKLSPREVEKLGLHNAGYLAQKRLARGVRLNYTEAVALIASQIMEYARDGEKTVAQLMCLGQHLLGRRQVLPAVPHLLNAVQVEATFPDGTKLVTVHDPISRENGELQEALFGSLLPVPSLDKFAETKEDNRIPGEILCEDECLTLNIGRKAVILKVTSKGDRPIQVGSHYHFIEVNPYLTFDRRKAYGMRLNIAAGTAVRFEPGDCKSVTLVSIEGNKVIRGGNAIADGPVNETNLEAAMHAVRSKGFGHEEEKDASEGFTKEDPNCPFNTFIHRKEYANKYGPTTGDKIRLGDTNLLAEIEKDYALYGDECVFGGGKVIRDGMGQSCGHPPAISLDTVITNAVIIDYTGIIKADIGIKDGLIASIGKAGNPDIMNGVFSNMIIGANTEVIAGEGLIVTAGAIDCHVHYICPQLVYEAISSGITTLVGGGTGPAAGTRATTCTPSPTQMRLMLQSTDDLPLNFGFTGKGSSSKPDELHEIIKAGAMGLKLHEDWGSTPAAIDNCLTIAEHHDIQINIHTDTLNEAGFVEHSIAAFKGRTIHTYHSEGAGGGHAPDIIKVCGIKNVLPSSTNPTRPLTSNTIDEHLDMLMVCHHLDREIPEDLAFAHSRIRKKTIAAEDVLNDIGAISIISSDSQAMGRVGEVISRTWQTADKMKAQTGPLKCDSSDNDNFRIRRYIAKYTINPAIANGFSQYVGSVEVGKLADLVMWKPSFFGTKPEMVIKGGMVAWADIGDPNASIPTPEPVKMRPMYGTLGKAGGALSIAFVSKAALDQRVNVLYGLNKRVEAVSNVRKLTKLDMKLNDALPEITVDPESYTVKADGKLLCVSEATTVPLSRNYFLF

[4] = biological target: lactate oxidase (Aerococcus viridans, UniProt Q44467)
Sequence of lactate oxidase (Q44467 whole entry, species assumed): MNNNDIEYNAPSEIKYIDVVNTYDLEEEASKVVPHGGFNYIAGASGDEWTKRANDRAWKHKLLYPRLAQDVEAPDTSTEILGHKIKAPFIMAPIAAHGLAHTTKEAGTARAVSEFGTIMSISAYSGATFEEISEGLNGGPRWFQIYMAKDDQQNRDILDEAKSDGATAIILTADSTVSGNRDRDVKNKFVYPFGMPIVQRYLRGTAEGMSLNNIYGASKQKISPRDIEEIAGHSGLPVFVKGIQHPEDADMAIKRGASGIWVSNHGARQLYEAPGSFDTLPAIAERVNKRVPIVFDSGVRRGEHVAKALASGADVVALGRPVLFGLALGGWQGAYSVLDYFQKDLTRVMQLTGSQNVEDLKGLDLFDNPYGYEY

[5] = biological target: glucose oxidase (Aspergillus niger, UniProt P13006)
Sequence of glucose oxidase (P13006 17-605, species assumed): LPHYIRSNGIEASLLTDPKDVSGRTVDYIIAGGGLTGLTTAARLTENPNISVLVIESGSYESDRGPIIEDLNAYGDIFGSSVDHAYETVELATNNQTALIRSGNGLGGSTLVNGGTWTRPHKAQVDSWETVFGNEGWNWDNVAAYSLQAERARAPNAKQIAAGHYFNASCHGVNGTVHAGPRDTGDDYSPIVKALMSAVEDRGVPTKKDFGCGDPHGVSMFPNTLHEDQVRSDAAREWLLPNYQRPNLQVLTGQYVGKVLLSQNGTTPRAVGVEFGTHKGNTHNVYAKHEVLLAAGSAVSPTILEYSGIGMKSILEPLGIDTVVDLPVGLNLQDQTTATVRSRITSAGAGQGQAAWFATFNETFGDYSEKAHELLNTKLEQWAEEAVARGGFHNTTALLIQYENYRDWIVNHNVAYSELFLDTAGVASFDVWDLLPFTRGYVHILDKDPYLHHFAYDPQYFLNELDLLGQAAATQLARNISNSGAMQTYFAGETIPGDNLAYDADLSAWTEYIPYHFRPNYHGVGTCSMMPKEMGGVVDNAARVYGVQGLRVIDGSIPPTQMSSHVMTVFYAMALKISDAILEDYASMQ

[6] = biological target: creatininase (Pseudomonas putida, UniProt P83772)
Procedure: The following examples are intended to illustrate the invention without limiting the invention. In all of the examples, creatininase from Pseudomonas putida was used, obtained from Roche Diagnostics, Mannheim, Germany.
The stability of the creatinine sensor was tested by observing the sensor responses to calibration solutions containing each of the substrates creatinine and creatine.
The calibration solutions were prepared by dissolving about 200 μM creatinine in the Radiometer Calibration Solution 1 S1720 and about 200 μM creatine in the Radiometer Calibration Solution 2 S1730. These solutions were repeatedly introduced into the apparatus one after the other and sensor responses were obtained.
It is convenient to depict the relation between the creatinine sensor response to creatinine relative to the creatinine sensor response to creatine by the following ratio: R=response to creatinine/response to creatine.
If R is constant, the creatininase activity is stable. A declining value for R indicates an overall loss of creatininase activity.
The same experiment as described above was conducted with five creatinine sensors having a significant initial excess of creatininase. In FIG. 4, R is depicted for this experiment.

[7] = test system: Creatinine Amidohydrolase; conditions: 1.0 mM solution; cited from earlier work

Row | Structure (SMILES) | reactivation of the inactive apoenzyme [1] | inhibition of the activity of creatininase ([1]; purified, heat-treated enzyme) | also measured
1 | [Co+2] [Co] | reactivated | inhibit slightly | –
2 | O=C(O)CN(CCN(CC(=O)O)CC(=O)O)CC(=O)O [EDTA, ethylenediamine tetraacetic acid] | – | – | inhibition of the activity of creatininase [1]: only slight inhibition
3 | [Fe+2] [Fe] | reactivated | inhibit slightly | –
4 | [Zn+2] [Zn] | reactivated | inhibit slightly | –
5 | [Mg+2] [Mg] | reactivated | inhibit slightly | –
6 | [Ca+2] [Ca] | – | inhibit slightly | –
7 | [Ni+2] [Ni] | reactivated | inhibit slightly | –
8 | [Mn+2] [divalent manganese ion] | reactivated | inhibit slightly | effect on heat-treated creatininase [2]: favourable effect; deactivation of urease [3]: not to deactivate; deactivation of lactate oxidase [4]: not to deactivate; deactivation of glucose oxidase [5]: not to deactivate; R = response to creatinine/response to creatine (relative sensor response) ([6]; 2 μM in Rinse Solution for 5½ days after 2¾ days without, two sensors with nearly no initial excess of creatininase, FIG. 3): approximately 0.8; R = response to creatinine/response to creatine (relative sensor response) ([6]; 10 μM in Rinse Solutions after 18 days without (R had decreased to 0.9), five sensors with significant initial excess of creatininase, FIG. 4): approximately 1.3; activation of creatininase ([6]; concentrations of about 0.01 to about 150 μM, without adverse effect on the other enzymes of the dual sensor system): activate creatininase; time for which the sensor response level was maintained ([6]; continuous treatment at about 2 μM, FIG. 3): at least 5 days; time for which the sensor response level was maintained ([6]; continuous treatment at about 10 μM, FIG. 4): at least 5 days
9 | [Cl][Mn][Cl] [MnCl2] | – | – | reactivation of metal ion depleted creatininase [7]: reactivated
